Series [1] has as its target T1, 14-3-3σ (Homo sapiens, UniProt P31947).
T1 sequence (P31947 with tags, fused parts or gaps): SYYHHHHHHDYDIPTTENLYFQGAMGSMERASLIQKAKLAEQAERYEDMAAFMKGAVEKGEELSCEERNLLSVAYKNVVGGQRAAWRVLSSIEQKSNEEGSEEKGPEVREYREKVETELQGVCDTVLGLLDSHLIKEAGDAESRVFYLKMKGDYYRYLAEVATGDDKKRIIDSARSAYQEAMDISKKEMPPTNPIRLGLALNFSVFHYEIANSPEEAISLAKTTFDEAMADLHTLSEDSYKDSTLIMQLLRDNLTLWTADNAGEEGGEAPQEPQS
As to the kind of experiment: Covalent labeling of 14-3-3σ by peptides, intact protein LC/MS. The conditions noted are these: for labeling of 14-3-3σ within 5 hours / labeling of 14-3-3σ after 48 hours / covalent labeling of 14-3-3σ with the expected adduct mass: 14-3-3σ 2 μM; for labeling of 14-3-3σ within 5 hours: time course; for labeling of 14-3-3σ after 48 hours: room temperature; for covalent labeling of 14-3-3σ with the expected adduct mass: peptide 200 μM, 4° C. overnight.

The nature of series [2]: Peptide stability in buffer and intrinsic reactivity with lysine and cysteine. The series is classed as physicochemical. The conditions noted are these: room temperature, timescale of days. As for the experimental part:
The intrinsic reactivity and stability of the active peptides with their labeling rates were compared). Their stability was tested in buffer and in the presence of lysine and cysteine at room temperature. […] The reactivity towards cysteine was much higher—the peptides reacted with cysteine to generate both Michael adducts as well as substitution products in which the thiol peptide is released. Peptides SEQ ID 3, SEQ ID 8 and SEQ ID 11 were more than >50% reacted within 2.5 hours.
The LS/MS runs for peptides were performed using the same instrument with a C18-CSH column (300 Å, 1.7 μm, […]) using a gradient starting from 1% B for 1 minute, rising to 95% B in 4.5 minutes, holding at 95% B for 0.75 minutes, then decreasing to 1% B in 0.75 minutes and holding at 1% B for 1 minute. MS data were collected at a range of 80-2500 m/z, using identical conditions for ionization as with the protein.

In another series the test system is 14-3-3 isoforms. The experiment in a line: Binding to 14-3-3 isoforms using LC-MS qTOF. The conditions noted are these: protein:peptide 1:5, overnight, 4° C. How it is done: The 14-3-3 isoforms were buffer-exchanged into complexation buffer (20 mM HEPES pH 7.5, 100 mM NaCl, 10 mM MgCl2) and mixed with the peptides (3/8) in a 1:5 molar stoichiometry (protein:peptide) at a final concentration of 10 mg/mL. The complexes were buffer-exchanged into milliQ+0.1% formic acid after overnight incubation at 4° C.
UPLC-QToF-MS analysis was performed on a Waters (Milford, MA, USA) Acquity I-Class UPLC system coupled to a Waters Xevo G2 quadrupole time-of-flight (QToF) mass spectrometer. The devices were controlled by MassLynx Software (version 4.1, Waters, MA, USA). Full scan in positive electrospray ionization (ESI+) mode was used as MS acquisition mode with an acquisition range from 200-2000 m/z. […] The samples concentration were 0.01-0.1 mg/mL, and the injection volume was 1 μL. Deconvolution was performed by the MaxEnt1 option of the MassLynx software. Errors were calculated using the MaxEnt Errors option.

Series [3] concerns the target T1, 14-3-3σ. As to the kind of experiment: Fluorescence polarization competition/binding experiment. The conditions noted are these: 14-3-3σ 0.25 μM, fluorescent peptide 5 nM, 27° C., immediately after mixing. (In general: In fluorescence polarisation assays a small probe gives low polarisation when free and higher when bound to something large.)
A short description of series [4]: Differential scanning fluorimetry for Im-E9 complexes. The format is physicochemical. Conditions: SYPRO Orange, protein 40 μM.
Procedure: SYPRO Orange (X5000 stock) was diluted 200-fold in buffer, and from this stock 13 μl were added to each sample, diluting the protein to 40 μM. Each sample were split into 3 technical replicates and heated in a thermal cycler over 1.5 hours to 95° C. while measuring the fluorescence.
Series [5] has as its target T2, human 14-3-3σ with an N-terminal His6-tag (SEQ ID 28) (human).
T2 chain: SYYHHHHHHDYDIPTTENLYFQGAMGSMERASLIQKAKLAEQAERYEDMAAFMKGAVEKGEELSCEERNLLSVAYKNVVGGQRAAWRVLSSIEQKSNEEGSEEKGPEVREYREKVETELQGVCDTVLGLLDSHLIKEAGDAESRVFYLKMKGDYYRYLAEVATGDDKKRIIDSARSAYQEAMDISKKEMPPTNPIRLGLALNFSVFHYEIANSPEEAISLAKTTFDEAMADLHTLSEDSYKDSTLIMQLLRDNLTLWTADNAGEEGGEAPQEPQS
As to the kind of experiment: 2 µM 14-3-3σ with 5 µM peptide, 48 hours at room temperature.

For series [6], the target named is T2, human 14-3-3σ with an N-terminal …. The experiment in a line: intact protein LC/MS; 200 µM peptide, 2 µM 14-3-3σ, 4° C. overnight.
Series [7] has the same target. As to the kind of experiment: not told how it was measured; probe of the fluorescence polarization experiment.
The target is the same in series [8]. The experiment in a line: time course, intact protein LC/MS; 5 µM peptide, 2 µM 14-3-3σ.

The values that follow come from patent US20260226096A1, “MODIFIED PROTEINS OR PEPTIDES FOR COVALENT TARGETING” (YEDA RESEARCH AND DEVELOPMENT CO. LTD., priority 2023, published 2026).

Non-standard residues stand in square brackets, D forms with d. Residues, ends and D or L forms follow the SMILES beside them. Primed or numbered codes have the meaning given here. No end group written: not given here. *: point of attachment. Pra′ = its azide, alkyne or alkene has reacted where a group follows in round brackets; methacrylate = methacrylate-modified cysteine (mC); pT = C[C@@H](OP(=O)(O)O)[C@H](N)C(=O)O; mC = methacrylate-modified cysteine; pS = N[C@@H](COP(=O)(O)O)C(=O)O; BODIPY = not defined here; Dab = NCC[C@H](N)C(=O)O; X1 = C=C(C*)C(=O)OCC; ClAc = O=C(CCl)*

With `C=C(CSC[C@H](NC(=O)[C@H](COP(=O)(O)O)NC(=O)[C@H](C)NC(=O)[C@H](CO)NC(=O)[C@H](CCCNC(=N)N)NC(C)=O)C(=O)N1CCC[C@H]1C(=O)N[C@@H](CO)C(=O)N[C@@H](CC(C)C)C(N)=O)C(=O)OCC` [SEQ ID 3, Ac-RSApSmCPSL-NH2] (Ac-RSA[pS]C(X1)PSL-NH2), the “labeling of 14-3-3σ within 5 hours” value on 14-3-3σ [1] (peptide 5 μM, 25° C.) is listed as 60%. Also, the “labeling of 14-3-3σ after 48 hours” value on 14-3-3σ [1] (peptide 5 μM) is given as ~ 75%. Further, the “covalent labeling of 14-3-3σ with the expected adduct mass” value (from here on “covalent labeling of 14-3-3σ”) at 14-3-3σ [1] turned out to be 51%. For the same molecule, the “stability in buffer over days” value in series [2] is “remained unmodified even after 3 days”.
With `C=C(CSC[C@H](NC(=O)[C@H](COP(=O)(O)O)NC(=O)[C@H](Cc1c[nH]cn1)NC(=O)[C@H](C)NC(=O)[C@H](CCCNC(=N)N)NC(C)=O)C(=O)N1CCC[C@H]1C(=O)N[C@@H](C)C(=O)N[C@@H](CO)C(=O)N[C@@H](CC(C)C)C(=O)N[C@@H](CCC(N)=O)C(N)=O)C(=O)OCC` [SEQ ID 8, Ac-RAHpSmCPASLQ-NH2] (Ac-RAH[pS]C(X1)PASLQ-NH2), the “labeling of 14-3-3σ within 5 hours” value at 14-3-3σ [1] (peptide 5 μM, 25° C.) is 80%. The “labeling of 14-3-3σ after 48 hours” value on 14-3-3σ [1] (peptide 5 μM) worked out at 90%. On 14-3-3σ [1], the “covalent labeling of 14-3-3σ” value stood at 35%. For the same molecule, in series [2], the “stability in buffer over days” value is “formed a new product with the same mass as the original peptide”.
Regarding `C=C(CSC[C@H](NC(=O)[C@H](CO)NC(=O)[C@H](C)NC(=O)[C@@H]1CCCN1C(=O)[C@H](CO)NC(=O)[C@H](COP(=O)(O)O)NC(=O)[C@H](Cc1c[nH]cn1)NC(=O)[C@H](C)NC(=O)[C@H](CCCNC(=N)N)NC(C)=O)C(=O)N[C@@H](CCC(N)=O)C(N)=O)C(=O)OCC` [SEQ ID 11, Ac-RAHpSSPASmCQ-NH2] (Ac-RAH[pS]SPASC(X1)Q-NH2), the “labeling of 14-3-3σ after 48 hours” value at 14-3-3σ [1] (peptide 5 μM) came out at 100%. The “free (non-labelled) 14-3-3σ remaining within 2.5 hours” value at 14-3-3σ [1] (peptide 5 μM, 25° C.) is listed as “less than 5%”. Further, the “covalent labeling of 14-3-3σ” value at 14-3-3σ [1] is recorded as 11%. In addition, the “stability in buffer over days” value in series [2] is listed as “formed a new product with the same mass as the original peptide”.
As to “Ac-RAHpSSPASLX-NH2 (Ac-RAH[pS]SPASL[Dab](ClAc)-NH2) [SEQ ID 12, chloroacetamide warhead peptide that reacts with 14-3-3σ via Cys38, used as a positive control]”, the “labeling of 14-3-3 isoforms” value in the series on 14-3-3 isoforms is “labeled only the sigma isoform”.
On to “Ac-RAHpSSPAmCLQ-NH2 (Ac-RAH[pS]SPAC(methacrylate)LQ-NH2) [SEQ ID 10]”, for which the “displacement of the fluorescent binder at 5 μM” value in the series with 14-3-3σ [3] (peptide 5 μM) was “had sufficient affinity to displace the fluorescent binder”.
With “Ac-SHpTLmCS-NH2 (Ac-SH[pT]LC(methacrylate)S-NH2) [SEQ ID 2]”, the “displacement of the fluorescent binder at 200 μM” value with 14-3-3σ [3] (peptide 200 μM) is “all peptides except peptide SEQ ID 2 displaced the binder”.
Consider “Im9: immunity protein, inhibitory partner of the E9 nuclease, in its free (unmodified) form”, for which the “unfolding (melting) temperature” value in [4] was “around 50 °C”.
As for Ac-RAH[pS]SPASC(methacrylate)Q-NH2 [Peptide SEQ ID 11, Ac-RAHpSSPASmCQ-NH2], the “covalent labeling (%)” value in series [5] amounted to 100%; in series [6], 11%.
For orientation: Kd means a measure of binding affinity in units of concentration. A higher Kd goes with lower affinity. Molecule [Pra′](BODIPY)RAH[pS]PASL[Dab] (not fully specified (N-terminus, C-terminus); reading uncertain) [BODIPY-labeled noncovalent binder for 14-3-3σ (SEQ ID 38)] showed a Kd in series [7] of around 100 nM.
For Ac-RAH[pS][mC]PASLQ-NH2 [Peptide SEQ ID 8, Ac-RAHpSmCPASLQ-NH2], the figures for the “covalent labeling (%)” value in series [5] and in [6] were 90% and 35%, respectively. Further, the “fold increase of the rate of labeling at 37° C. against 25° C.” value in [8] was around 4 fold.
The like results for Ac-RSA[pS][mC]PSL-NH2 [Peptide SEQ ID 3, Ac-RSApSmCPSL-NH2] were, in that order, around 75%, 51% and around 4 fold.
For Ac-SH[pT][mC]PS-NH2 [Peptide SEQ ID 1, Ac-SHpTmCPS-NH2], the “covalent labeling (%)” value in series [6] is around 10%.
